Measured values reported in BindingDB's records for patent US11466047 (Merck Sharp & Dohme, 2022).

Biological target: T1, Stimulator of interferon genes protein [R71H,G230A,H232R,R293Q] (Homo sapiens, UniProt Q86WV6, G230A/H232R/R293Q/R71H)
T1 construct: gene STING1
Assay: 3H-cGAMP Filtration Binding Assay
Experimental: The compounds were serially titrated by the Hamilton STARPlus CORE in a 96-well plate (Greiner, #651201) using a 1:3 ten-point dose response format. After compound preparation, a 2.2 ug/ml working concentration of STING membrane (SEQ. ID. No. 1) was prepared by diluting concentrated membrane into assay buffer (lx PBS; Invitrogen #SH30028.02) and douncing 7× using a manual tissue homogenizer (Wheaton, #357546). 148 uL of prepared membrane was then manually added to each well of a 96-well deep-well polypropylene plate (Fisher Scientific, #12-566-121). Following membrane addition, 2 uL of either titrated test compound, DMSO control (Sigma #276855), or cold cGAMP control was added to the appropriate wells using a BIOMEK FX. Compound and membrane then preincubated for 60 min at RT to allow compound binding to equilibrate. Following equilibration, 8 nM of [3H]c-GAMP ligand was prepared by diluting into assay buffer, and 50 uL of this working stock was then manually added to each well of the assay plate. Plates were then incubated at RT for 60 min, and the contents of each assay plate were then filtered through a 96-well GF/B filter plate (PerkinElmer, #6005250) using a TOMTEC MACH III Cell Harvester equipped with 20 mM HEPES buffer (Fisher Scientific, #BP299500). […] Tritium levels for each reaction well were then measured using a PerkinElmer TopCount plate reader.

T1 sequence (Q86WV6 whole entry R71H/G230A/H232R/R293Q, looked up): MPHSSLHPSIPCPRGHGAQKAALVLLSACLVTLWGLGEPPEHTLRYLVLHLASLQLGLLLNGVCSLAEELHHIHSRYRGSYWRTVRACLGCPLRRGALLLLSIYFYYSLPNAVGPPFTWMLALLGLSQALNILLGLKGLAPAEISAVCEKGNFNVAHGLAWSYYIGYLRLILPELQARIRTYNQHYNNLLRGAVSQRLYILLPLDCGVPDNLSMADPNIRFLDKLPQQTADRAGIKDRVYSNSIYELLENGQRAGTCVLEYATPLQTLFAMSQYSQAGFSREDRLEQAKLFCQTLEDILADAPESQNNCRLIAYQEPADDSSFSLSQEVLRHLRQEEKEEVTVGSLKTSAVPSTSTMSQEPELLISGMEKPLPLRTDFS

For Nc1nc2c(ncn2[C@@H]2O[C@@H]3COP(=S)(S)O[C@H]4[C@H](F)[C@H](n5cnc6c(=O)[nH]cnc65)O[C@@H]4COP(O)(=S)O[C@@H]2[C@@H]3F)c(=O)[nH]1 (stereo partly specified) [US11466047, Example 27], the EC50 was < 1 nM.
